Values quoted from earlier work as cited in patent US20240335414A1, “SPECIALIZED COMBINATIONS FOR MENTAL DISORDERS OR MENTAL ENHANCEMENT” (TACTOGEN INC, priority 2021, published 2024).

How the values were obtained:
[1] = MDMA arm, first of two Phase 3 trials, MDMA-assisted therapy
5-HT1B = 5-HT1B (Homo sapiens, UniProt P28222)
[2] = pooled Phase 2 clinical trials

5-HT1B, sequence (P28222 whole entry, species assumed): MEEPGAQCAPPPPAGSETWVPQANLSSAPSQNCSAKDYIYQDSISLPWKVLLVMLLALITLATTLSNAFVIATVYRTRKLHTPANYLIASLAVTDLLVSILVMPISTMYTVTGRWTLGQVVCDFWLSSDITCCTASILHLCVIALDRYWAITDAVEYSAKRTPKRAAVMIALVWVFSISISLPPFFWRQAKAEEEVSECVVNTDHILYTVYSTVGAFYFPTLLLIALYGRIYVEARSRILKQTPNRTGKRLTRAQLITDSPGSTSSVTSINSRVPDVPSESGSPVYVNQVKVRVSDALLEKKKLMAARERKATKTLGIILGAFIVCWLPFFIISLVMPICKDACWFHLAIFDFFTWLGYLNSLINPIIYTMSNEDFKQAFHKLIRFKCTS

Question: For CNC(C)Cc1ccc2c(c1)OCO2 (stereo not drawn) [MDMA, 3,4-methylenedioxymethamphetamine], which “participants no longer diagnosable with PTSD” value [1] is on record?
Answer: The value was “two-thirds”.

Question: What about the “binding to the 5-HT1B” value (5-HT1B) of the same molecule?
Answer: The value was “does not bind”.

Question: And the “nausea, proportion of participants” value ([2]; 29 of 72 participants)?
Answer: Its value is 40.3%.

Question: And the “anxiety, proportion of participants” value ([2]; 52 of 72 participants)?
Answer: The value was 72.2%.

Question: And the EC50 (neuritogenesis; read-out: EC50 for promoting neuritogenesis)?
Answer: The EC50 was 7.41 nM.

Question: What about the “Emax for promoting neuritogenesis, compared with ketamine” value (neuritogenesis; relative to ketamine) of the same molecule?
Answer: Its value is “approximately twice that of ketamine”.
